Values of other authors as cited in patent US20060217894A1, “Use of computationally derived protein structures of genetic polymorphisms in pharmacogenomics for drug design and clinical applications” (priority 1999, published 2006).

Target: NS3 protease (Hepatitis C virus genotype 1b, UniProt P26663)
Conditions: values obtained from literature (Ingallinella et al. 1998)

Chain of NS3 protease (P26663 1027-1657, other chains not shown): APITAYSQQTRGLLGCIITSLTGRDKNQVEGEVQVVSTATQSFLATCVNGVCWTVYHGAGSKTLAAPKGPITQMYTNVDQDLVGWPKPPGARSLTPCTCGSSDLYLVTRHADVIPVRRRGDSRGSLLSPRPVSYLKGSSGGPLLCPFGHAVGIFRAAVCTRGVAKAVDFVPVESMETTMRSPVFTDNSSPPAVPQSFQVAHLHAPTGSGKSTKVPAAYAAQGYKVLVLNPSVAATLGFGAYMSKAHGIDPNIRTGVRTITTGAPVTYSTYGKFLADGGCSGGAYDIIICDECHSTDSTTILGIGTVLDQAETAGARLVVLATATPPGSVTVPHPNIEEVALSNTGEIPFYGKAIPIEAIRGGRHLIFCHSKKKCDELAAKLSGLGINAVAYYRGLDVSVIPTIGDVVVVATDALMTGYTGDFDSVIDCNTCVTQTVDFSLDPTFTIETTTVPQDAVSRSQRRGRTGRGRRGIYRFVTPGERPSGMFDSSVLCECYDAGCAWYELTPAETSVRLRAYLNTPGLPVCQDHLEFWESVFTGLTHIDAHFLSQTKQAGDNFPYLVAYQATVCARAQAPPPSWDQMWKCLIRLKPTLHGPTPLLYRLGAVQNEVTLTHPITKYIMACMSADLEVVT

| Substance | IC50 [nM] |
| --- | --- |
| Ac-Asp^1-D-Glu^2-Leu^3-Ile^4-Cha^5-Cys^6-COO- | 15 |
| Ac-Asp^1-L-Glu^2-Leu^3-Ile^4-Cha^5-Cys^6-COO- | 60 |
